Experiments:
Format in all cases: cell-based, Pseudomonas aeruginosa
[1] = tested on: β-lactamase-harboring MDR P. aeruginosa clinical isolates; assay: Triple combination susceptibility (β-lactam + avibactam + compound 2)
Text: The diazabicyclooctane β-lactamase inhibitor, avibactam, is able to inhibit a wide range of serine β-lactamases (class A, C, and D) but not metallo-β-lactamases (class B) (50, 51).^50,51 However, the high concentration of avibactam required to neutralize the effects of β-lactamase enzymes in these phenotypes is indicative of concomitant permeability barriers in the isolates, such as reduced porin uptake. […] The results of this study are shown in (FIG. 6). All isolates were resistant to all three β-lactam antibiotics used for the study. […] As expected, the study with meropenem was slightly different from others.
(§1) Antimicrobial Susceptibility Assay. The in vitro antimicrobial activity of all compounds/antibiotics against a panel of bacteria was evaluated by microbroth dilution method in accordance with the Clinical and Laboratory Standards Institute (CLSI) guidelines. Overnight grown bacterial cultures were diluted in saline to achieve a 0.5 McFarland turbidity, followed by 1:50 dilution in Mueller-Hinton broth (MHB) for inoculation to a final concentration of approximately 5×10^5CFU/mL. The antimicrobial agents were 2-fold serially diluted in MHB in a 96-well plate and incubated at 37° C. with equal volumes of inoculum for 18 h. The lowest concentration that prevented the visible growth of bacteria was defined as the MIC for each antimicrobial agent. The broth with or without bacterial cells was used as positive or negative control, respectively.
(§2) Checkerboard Assay. Combination studies with different antibiotics were performed in 96-well plates as previously described (22). Briefly, the antibiotic of interest was serially diluted in MHB along the abscissa while the adjuvant (newly synthesized conjugates) was serially diluted in MHB along the ordinate. This creates a 10×7 matrix wherein each well consists of a combination of different antibiotic and adjuvant concentrations. Overnight grown bacterial cultures were diluted in saline to achieve a 0.5 McFarland turbidity, followed by 1:50 dilution in Mueller-Hinton broth (MHB) for inoculation to a final concentration of approximately 5×10^5CFU/mL. Equal volume of this bacterial culture was then added to each well and incubated at 37° C. for 18 h. After incubation, the plates were read on EMax® Plus microplate reader (Molecular Devices, Sunnyvale, Calif., USA) at 590 nm. MIC was recorded as wells with the lowest concentration of drugs with no bacterial growth. The fractional inhibitory concentration (FIC) for each antibiotic was calculated by dividing the MIC of the antibiotic in the presence of adjuvant by the MIC of the antibiotic alone. Similarly, the FIC of adjuvant was calculated by dividing the MIC of the adjuvant in the presence of antibiotic by the MIC of the adjuvant alone. FIC index is the sum of both FICs. FIC indices of <0.5 were deemed synergistic; 0.5-4, no interaction; and >4, antagonistic.

WT P. aeruginosa PAO1 = assay: Checkerboard combination study / MIC
PA 100036 = assay: Checkerboard combination study / MIC
PA 101885 = assay: Checkerboard combination study / MIC
PA 259 = assay: Checkerboard combination study / MIC
PA 260 = assay: Checkerboard combination study / MIC
PA 262 = assay: Checkerboard combination study / MIC
PA 264 = assay: Checkerboard combination study / MIC
PA 91433 = assay: Checkerboard combination study / MIC; details: PA 91433
PA 101243 = assay: Checkerboard combination study / MIC; details: PA 101243
PA 114228 = assay: Checkerboard combination study / MIC
PAO200 = tested on: PAO200
Text: (§3) PAO200 is a tnexA-rnexB-oprM deletion strain while PAO750 lacks five important RND pumps (McxAB-OprM, MexCD-OprJ, MexEF-OprN, Mex JK, and MexXY) and the outer membrane protein OpmH (46, 47). Some of these pumps are homologues of broad substrate specificities that extrude different classes of antimicrobial agents and confer resistance on P. aeruginosa (48).
as §1, §2

PAO750 = tested on: PAO750
Text: as §3, §1, §2

[2] = tested on: MDR/XDR P. aeruginosa clinical isolates; assay: MIC and checkerboard, panel of clinical isolates; details: antibiotic + compound 2 (8.7 μM); resistant P. aeruginosa isolates
[3] = MIC of antibiotic combined with compound 2

**Q.** `NC(=O)[C@@H]1CC[C@@H]2CN1C(=O)N2OS(=O)(=O)O` [Avibactam] was tested. Which “concentration that completely reverses resistance to ceftazidime and aztreonam” value ([1]; 16-64 μM, not meropenem) did it give?
**A.** 4 to 16 µg/mL

**Q.** And the “isolates reaching aztreonam susceptibility breakpoint (≤8 μg/ml)” value ([1]; aztreonam + single adjuvant 8 μM)?
**A.** three out of five

**Q.** What about the “isolates reaching ceftazidime susceptibility breakpoint (≤8 μg/ml)” value ([1]; ceftazidime + single adjuvant 8 μM) of the same compound?
**A.** four out of five

**Q.** What about the “isolates reaching meropenem susceptibility level” value ([1]; meropenem + single adjuvant 8 μM) of the same compound?
**A.** one of five

**Q.** What about the potentiation of ceftazidime ([1]; single adjuvant at 8 μM, five isolates) of the same compound?
**A.** 4-16 fold

**Q.** With `CO/N=C(\C(=O)N[C@@H]1C(=O)N2C(C(=O)O)=C(COC(C)=O)CS[C@H]12)c1csc(N)n1` [Cefotaxime] as the compound, how does the “MIC of antibiotic + Compound 2 in PAO1” value (WT P. aeruginosa PAO1; + compound 2 ≤8.7 μM, PAO1) read?
**A.** 4 (4) μg/ml

**Q.** And the MIC (WT P. aeruginosa PAO1; Pseudomonas aeruginosa, PAO1, 18 h, antibiotic alone, WT PAO1 (Table 2), read-out: MIC alone)?
**A.** 16 µg/mL

**Q.** What about the “FICI in the presence of ≤10 μM of 1” value (WT P. aeruginosa PAO1; antibiotic + compound 1, WT PAO1) of the same compound?
**A.** 0.13

**Q.** And the “MIC of Antibiotics in the presence of ≤10 μM of 1” value (WT P. aeruginosa PAO1; antibiotic + compound 1 ≤10 μM, WT PAO1)?
**A.** 2 µg/mL

**Q.** What about the “FICI in the presence of ≤10 μM of 2” value (WT P. aeruginosa PAO1; antibiotic + compound 2, WT PAO1) of the same compound?
**A.** 0.26

**Q.** And the “MIC of Antibiotics in the presence of ≤10 μM of 2” value (WT P. aeruginosa PAO1; antibiotic + compound 2 ≤10 μM, WT PAO1)?
**A.** 4 µg/mL

**Q.** And the “FICI in the presence of ≤10 μM of 3” value (WT P. aeruginosa PAO1; antibiotic + compound 3, WT PAO1)?
**A.** 0.27

**Q.** And the “MIC of Antibiotics in the presence of ≤10 μM of 3” value (WT P. aeruginosa PAO1; antibiotic + compound 3 ≤10 μM, WT PAO1)?
**A.** 4 µg/mL

**Q.** And the “MIC of antibiotic alone in PAO1” value (WT P. aeruginosa PAO1; antibiotic alone, PAO1 wild-type (Table 4))?
**A.** 16 µg/mL

**Q.** And the “MICCombination (antibiotic)” value (PA 100036; [3])?
**A.** 8 µg/mL

**Q.** And the FICI (PA 100036; antibiotic + compound 2)?
**A.** <0.31

**Q.** What about the MICAntibiotic (PA 100036; antibiotic alone) of the same compound?
**A.** 32 µg/mL

**Q.** What about the FICAntibiotic (PA 100036; with compound 2) of the same compound?
**A.** 0.250

**Q.** What about the “MICCombination (antibiotic)” value (PA 101885; [3]) of the same compound?
**A.** 8 µg/mL

**Q.** What about the FICI (PA 101885; antibiotic + compound 2) of the same compound?
**A.** <0.13

**Q.** What about the MICAntibiotic (PA 101885; antibiotic alone) of the same compound?
**A.** 128 µg/mL

**Q.** And the FICAntibiotic (PA 101885; with compound 2)?
**A.** 0.063

**Q.** What about the “MICCombination (antibiotic)” value (PA 259; [3]) of the same compound?
**A.** 512 µg/mL

**Q.** What about the FICI (PA 259; antibiotic + compound 2) of the same compound?
**A.** <0.31

**Q.** And the MICAntibiotic (PA 259; antibiotic alone)?
**A.** 2048 µg/mL

**Q.** What about the FICAntibiotic (PA 259; with compound 2) of the same compound?
**A.** 0.250

**Q.** What about the “MICCombination (antibiotic)” value (PA 260; [3]) of the same compound?
**A.** 512 µg/mL

**Q.** And the FICI (PA 260; antibiotic + compound 2)?
**A.** <0.53

**Q.** And the MICAntibiotic (PA 260; antibiotic alone)?
**A.** 1024 µg/mL

**Q.** What about the FICAntibiotic (PA 260; with compound 2) of the same compound?
**A.** 0.500

**Q.** What about the “MICCombination (antibiotic)” value (PA 262; [3]) of the same compound?
**A.** 32 µg/mL

**Q.** What about the FICI (PA 262; antibiotic + compound 2) of the same compound?
**A.** <0.31

**Q.** And the MICAntibiotic (PA 262; antibiotic alone)?
**A.** 128 µg/mL

**Q.** And the FICAntibiotic (PA 262; with compound 2)?
**A.** 0.250

**Q.** And the “MICCombination (antibiotic)” value (PA 264; [3])?
**A.** 512 µg/mL

**Q.** What about the FICI (PA 264; antibiotic + compound 2) of the same compound?
**A.** <0.31

**Q.** What about the MICAntibiotic (PA 264; antibiotic alone) of the same compound?
**A.** 2048 µg/mL

**Q.** What about the FICAntibiotic (PA 264; with compound 2) of the same compound?
**A.** 0.250

**Q.** What about the “MICCombination (antibiotic)” value (PA 91433; [3]) of the same compound?
**A.** 8 µg/mL

**Q.** What about the FICI (PA 91433; antibiotic + compound 2) of the same compound?
**A.** <0.07

**Q.** What about the MICAntibiotic (PA 91433; antibiotic alone) of the same compound?
**A.** 1024 µg/mL

**Q.** And the FICAntibiotic (PA 91433; with compound 2)?
**A.** 0.008

**Q.** What about the “MICCombination (antibiotic)” value (PA 101243; [3]) of the same compound?
**A.** 128 µg/mL

**Q.** What about the FICI (PA 101243; antibiotic + compound 2) of the same compound?
**A.** <0.50

**Q.** And the MICAntibiotic (PA 101243; antibiotic alone)?
**A.** 256 µg/mL

**Q.** What about the FICAntibiotic (PA 101243; with compound 2) of the same compound?
**A.** 0.500

**Q.** What about the “MICCombination (antibiotic)” value (PA 114228; [3]) of the same compound?
**A.** 16 µg/mL

**Q.** And the FICI (PA 114228; antibiotic + compound 2)?
**A.** <0.14

**Q.** What about the MICAntibiotic (PA 114228; antibiotic alone) of the same compound?
**A.** 128 µg/mL

**Q.** What about the “MIC of antibiotic + Compound 2 in PAO200” value (PAO200; + compound 2 ≤8.7 μM, PAO200) of the same compound?
**A.** 4 µg/mL

**Q.** And the “MIC of antibiotic alone in PAO200” value (PAO200; antibiotic alone, PAO200 efflux-deficient)?
**A.** 8 µg/mL

**Q.** And the “MIC of antibiotic + Compound 2 in PAO750” value (PAO750; + compound 2 ≤8.7 μM, PAO750)?
**A.** 2 µg/mL

**Q.** And the “MIC of antibiotic alone in PAO750” value (PAO750; antibiotic alone, PAO750 efflux-deficient)?
**A.** 32 µg/mL

**Q.** What about the “resistant isolates reaching CLSI clinical breakpoint” value [2] of the same compound?
**A.** four out of ten

From patent publication US20210290648A1, “Potentiation of B-Lactam Antibiotics and B-Lactam/B-Lactamase Inhibitor Combinations Against Multidrug and Extensively Drug-Resistant Pseudomonas Aeruginosa Using Non-Ribosomal Tobramycin-Cyclam Conjugates” (University of Manitoba, priority 2018, published 2021)
